Experimental findings from PubChem BioAssay AID330 (DTP/NCI, 2004) are described below.

This assay relates to P388 leukemia ip, CD2F1 mice, survival T/C. Briefly: NCI In Vivo Anticancer Drug Screen. Data for tumor model P388 Leukemia (intraperitoneal) in CD2F1 (CDF1) mice. The settings on record: endpoint: median survival time, higher = longer survival. An outline of the steps:
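Mice carrying the transplanted tumor received test compound or vehicle. Survival was recorded in each group, and the value is the treated-group measurement divided by that of the vehicle-treated control group.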

Where [1] appears, read: dose: 60.0 mg/kg/injection, schedule: Q01DX005 (ip), vehicle: saline with Tween-80.
Setting [2] is: dose: 120.0 mg/kg/injection, schedule: Q01DX005 (ip), vehicle: saline with Tween-80.
[3] abbreviates: dose: 240.0 mg/kg/injection, schedule: Q01DX005 (ip), vehicle: saline with Tween-80.
[4] abbreviates: dose: 60.0 mg/kg/injection, schedule: Q01DX005 (ip), vehicle: Klucel (hydroxypropylcellulose) (HPC).
The mark [5] stands for this setting: dose: 120.0 mg/kg/injection, schedule: Q01DX005 (ip), vehicle: Klucel (hydroxypropylcellulose) (HPC).
The mark [6] stands for this setting: dose: 240.0 mg/kg/injection, schedule: Q01DX005 (ip), vehicle: Klucel (hydroxypropylcellulose) (HPC).
Setting [7] is: dose: 50.0 mg/kg/injection, schedule: Q01DX009 (ip), vehicle: saline with Tween-80.
Where [8] appears, read: dose: 100.0 mg/kg/injection, schedule: Q01DX009 (ip), vehicle: saline with Tween-80.
Where [9] appears, read: dose: 200.0 mg/kg/injection, schedule: Q01DX009 (ip), vehicle: saline with Tween-80.
[10] abbreviates: dose: 12.5 mg/kg/injection, schedule: Q01DX009 (ip), vehicle: saline with Tween-80.
[11] abbreviates: dose: 50.0 mg/kg/injection, schedule: Q01DX005 (ip), vehicle: Klucel (hydroxypropylcellulose) (HPC).
[12] abbreviates: dose: 100.0 mg/kg/injection, schedule: Q01DX005 (ip), vehicle: Klucel (hydroxypropylcellulose) (HPC).
The mark [13] stands for this setting: dose: 200.0 mg/kg/injection, schedule: Q01DX005 (ip), vehicle: Klucel (hydroxypropylcellulose) (HPC).
[14] abbreviates: dose: 50.0 mg/kg/injection, schedule: Q01DX005 (ip), vehicle: saline with Tween-80.
Where [15] appears, read: dose: 100.0 mg/kg/injection, schedule: Q01DX005 (ip), vehicle: saline with Tween-80.
Where [16] appears, read: dose: 200.0 mg/kg/injection, schedule: Q01DX005 (ip), vehicle: saline with Tween-80.
Setting [17] is: dose: 25.0 mg/kg/injection, schedule: Q01DX005 (ip), vehicle: saline with Tween-80.

Values joined by “and” are separate entries in the source; they are usually repeats but may differ in a detail not shown here. Identical values can stand only once. Toxic doses and inconclusive results are not listed.

With `COc1cc([C@H]2c3c(cc(OC)c(OC)c3OC)CC3COC(=O)[C@@H]32)cc2c1OCO2` (stereo partly drawn), the T/C is, setting by setting: under setting [1], 98 % of control; under setting [2], 92 % of control; under setting [3], 90 % of control.

Take `C=C1C(=O)C23OC2C1CCC(=O)C1(C)CC[C@H](OC(C)=O)C(C)(C)[C@H]1CC3=O` (stereo partly drawn): the T/C (dose: 2.5 mg/kg/injection, schedule: Q01DX005 (ip), vehicle: Klucel (hydroxypropylcellulose) (HPC)) is 111 % of control; the T/C (dose: 5.0 mg/kg/injection, schedule: Q01DX005 (ip), vehicle: Klucel (hydroxypropylcellulose) (HPC)) was 107 % of control; the T/C (dose: 10.0 mg/kg/injection, schedule: Q01DX005 (ip), vehicle: Klucel (hydroxypropylcellulose) (HPC)) is 107 % of control.

For the compound `COc1cccc(C2c3cc4c(cc3OC(C)(O)C2C)OCO4)c1OC` (stereo not drawn), the T/C under setting [4] is 103 % of control, the T/C under setting [5] was 97 % of control and the T/C under setting [6] was 95 % of control.

Regarding `[S]=[W]=[S]`, the T/C under setting [7] is 98 % of control, the T/C under setting [8] is 102 % of control and the T/C under setting [9] is 96 % of control.

For `CCn1c2nc(=O)n(C)c(=O)c-2cc2cc(C)ccc21`, the T/C was 92 % of control under setting [10]; 101 % of control (dose: 25.0 mg/kg/injection, schedule: Q01DX009 (ip), vehicle: saline with Tween-80); 109 % of control under setting [7].

Consider `CC(O)C(C(c1ccccc1)N1CCOCC1)N1CCOCC1` (stereo not drawn), for which the T/C by setting is: under setting [11], 99 % of control; under setting [12], 90 % of control; under setting [13], 98 % of control.

As to `CC(C)C(CC(=O)O)C(=O)O` (stereo not drawn), the T/C under setting [14] was 100 % of control, the T/C under setting [15] was 91 % of control and the T/C under setting [16] is 104 % of control.

Consider `CC1(C)C(=O)C(C)(C)C1O[Si](C)(C)OC1C(C)(C)C(=O)C1(C)C`, for which the T/C is 102 % of control (dose: 100.0 mg/kg/injection, schedule: Q04DX003 (ip), vehicle: Klucel (hydroxypropylcellulose) (HPC)); 101 % of control (dose: 200.0 mg/kg/injection, schedule: Q04DX003 (ip), vehicle: Klucel (hydroxypropylcellulose) (HPC)); 93 % of control (dose: 400.0 mg/kg/injection, schedule: Q04DX003 (ip), vehicle: Klucel (hydroxypropylcellulose) (HPC)).

As for `O=C([OH2+])C[N]1C(=O)C[NH][Ga]1[Cl].O=C([OH2+])C[N]1C(=O)C[NH][Ga]1[Cl]`, the T/C was 108 % of control under setting [11], 100 % of control under setting [12] and 98 % of control under setting [13].

In the case of `CCC1CN2C(=N1)c1ccccc1-c1cc(Cl)ccc12` (stereo not drawn), the T/C reads like this: (dose: 5.0 mg/kg/injection, schedule: Q01DX009 (ip), vehicle: saline) 106 % of control; (dose: 6.25 mg/kg/injection, schedule: Q01DX009 (ip), vehicle: saline) 101 % of control and 102 % of control and 90 % of control; (dose: 10.0 mg/kg/injection, schedule: Q01DX009 (ip), vehicle: saline) 121 % of control and 124 % of control; (dose: 12.5 mg/kg/injection, schedule: Q01DX009 (ip), vehicle: saline) 103 % of control and 106 % of control and 97 % of control; (dose: 20.0 mg/kg/injection, schedule: Q01DX009 (ip), vehicle: saline) 117 % of control; (dose: 25.0 mg/kg/injection, schedule: Q01DX009 (ip), vehicle: saline) 101 % of control (2×) and 108 % of control. In addition, the T/C was 156 % of control (dose: 40.0 mg/kg/injection, schedule: Q01DX009 (ip), vehicle: saline); 103 % of control and 123 % of control and 94 % of control (dose: 50.0 mg/kg/injection, schedule: Q01DX009 (ip), vehicle: saline).

For the compound `C[Si](C)(C)Cn1cccc1`, the T/C is, setting by setting: under setting [1], 103 % of control; under setting [2], 102 % of control; under setting [3], 94 % of control.

In the case of `O=C(c1ccc2c(c1)OCO2)N1OC2C=CC1CC2` (stereo not drawn), the T/C was 98 % of control under setting [7], 96 % of control under setting [8] and 98 % of control under setting [9].

For the compound `O=C1Nc2c(Cl)cc(Cl)cc2/C1=N/N=C/c1ccco1`, the T/C by setting is: under setting [14], 101 % of control; under setting [15], 104 % of control; under setting [16], 104 % of control.

`O=C(Nc1ccc(F)cc1)ON=C1CCCCC1`: the T/C by setting is: under setting [1], 92 % of control; under setting [2], 97 % of control; under setting [3], 90 % of control.

Consider `C=CC(COC(=O)C(C)(C)OC(C)=O)c1ccc(OC(=O)C(C)C)c(OC)c1` (stereo not drawn), for which the T/C (dose: 12.5 mg/kg/injection, schedule: Q01DX009 (ip), vehicle: Klucel (hydroxypropylcellulose) (HPC)) is 94 % of control; the T/C (dose: 50.0 mg/kg/injection, schedule: Q01DX009 (ip), vehicle: Klucel (hydroxypropylcellulose) (HPC)) was 100 % of control; the T/C (dose: 100.0 mg/kg/injection, schedule: Q01DX009 (ip), vehicle: Klucel (hydroxypropylcellulose) (HPC)) is 102 % of control.

Turning to `C/C(=N/N)c1ccc(Br)cc1`, the T/C runs as follows: (dose: 6.25 mg/kg/injection, schedule: Q01DX009 (ip), vehicle: saline with Tween-80) 100 % of control; under setting [10], 104 % of control.

With `CC(N)(CCS(=O)(=O)CP(=O)(O)O)C(=O)O` (stereo not drawn), the T/C runs as follows: (dose: 60.0 mg/kg/injection, schedule: Q01DX005 (ip), vehicle: saline) 103 % of control; (dose: 120.0 mg/kg/injection, schedule: Q01DX005 (ip), vehicle: saline) 97 % of control; (dose: 240.0 mg/kg/injection, schedule: Q01DX005 (ip), vehicle: saline) 93 % of control.

As for `FC(F)(F)C1(C(F)(F)F)O[Si]2(OC(C(F)(F)F)(C(F)(F)F)c3ccccc32)c2ccccc21`, the T/C (dose: 25.0 mg/kg/injection, schedule: Q01DX005 (ip), vehicle: distilled water + Tween-80 + alcohol) was 97 % of control; the T/C under setting [17] was 105 % of control; the T/C (dose: 50.0 mg/kg/injection, schedule: Q01DX005 (ip), vehicle: distilled water + Tween-80 + alcohol) is 96 % of control; the T/C under setting [14] was 103 % of control; the T/C under setting [15] is 105 % of control.

Consider `O=Nc1cc(S(=O)(=O)O)c2ccccc2c1O`, for which the T/C reads like this: under setting [7], 100 % of control; under setting [8], 90 % of control; under setting [9], 90 % of control.

Regarding `COc1ccccc1NC(=O)CC(=O)N1N=C(C)C(N=Nc2ccc(I)cc2)C1=O` (stereo not drawn), the T/C under setting [14] is 95 % of control, the T/C under setting [15] is 100 % of control and the T/C under setting [16] was 92 % of control.

Consider `CCCCN(CCCC)CC(O)c1cc2c(Cl)cc(Cl)cc2c2cc(C(F)(F)F)ccc12` (stereo not drawn), for which the T/C is 97 % of control under setting [7], 100 % of control under setting [8] and 100 % of control under setting [9].

On to `O=C(O)c1sc(-c2ccccc2)c2c1-c1ccccc1C2=O`, for which the T/C by setting is: under setting [4], 98 % of control; under setting [5], 96 % of control; under setting [6], 97 % of control.

On to `CC(=O)Oc1ccc2c(c1)C(=O)CCCCC(=O)O2`, for which the T/C runs as follows: (dose: 100.0 mg/kg/injection, schedule: Q04DX002 (ip), vehicle: Klucel (hydroxypropylcellulose) (HPC)) 106 % of control; (dose: 200.0 mg/kg/injection, schedule: Q04DX002 (ip), vehicle: Klucel (hydroxypropylcellulose) (HPC)) 116 % of control; (dose: 400.0 mg/kg/injection, schedule: Q04DX002 (ip), vehicle: Klucel (hydroxypropylcellulose) (HPC)) 106 % of control.

Turning to `CCCCCCCCCC(=O)C1C(c2ccccc2)CC(=O)C(CCCCCCCC)C1c1ccccc1` (stereo not drawn), the T/C (dose: 12.5 mg/kg/injection, schedule: Q01DX005 (ip), vehicle: saline with Tween-80) is 87 % of control; the T/C under setting [17] was 98 % of control; the T/C under setting [14] is 109 % of control and 93 % of control; the T/C under setting [15] was 105 % of control; the T/C under setting [16] is 115 % of control.

For the compound `CC1=C(/C=C/C(C)=C/C=C/C(C)=C/C=C/C=C(C)/C=C/C=C(C)/C=C/C2=C(C)C(=O)CCC2(C)C)C(C)(C)CCC1=O`, the T/C was 98 % of control under setting [1], 88 % of control under setting [2] and 91 % of control under setting [3].

In the case of `O=[N+]([O-])c1ccc2oc([N+](=O)[O-])cc2c1`, the T/C is 101 % of control under setting [11], 100 % of control under setting [12] and 101 % of control under setting [13].

Take `FC(F)(F)c1ssc1C(F)(F)F`: the T/C is, setting by setting: (dose: 100.0 mg/kg/injection, schedule: Q01DX001 (ip), vehicle: other) 99 % of control; (dose: 200.0 mg/kg/injection, schedule: Q01DX001 (ip), vehicle: other) 104 % of control.
